Reference: publication PMC4965013, “Open Source Drug Discovery with the Malaria Box Compound Collection for Neglected Diseases and Beyond” (PLoS Pathogens, 2016)
Read-outs that look alike come from different tables or passages of the source.

How the values were obtained:
[1] = system: P. falciparum 3D7; assay: [3H]-hypoxanthine growth inhibition, modified HCO3- or O2; assay type: cell-based; settings: for IC50: Plasmodium falciparum
[2] = system: P. falciparum; assay: EC50 listed in S2 Table Metabolomics (used to set the concentration tested); assay type: cell-based; settings: Plasmodium falciparum; EC50 used for Factor_XEC50 in metabolomics; read-out: EC50_nM
[3] = system: P. falciparum 3D7 trophozoites; assay: Metabolomic fingerprint profiling LC-MS; assay type: cell-based, Plasmodium falciparum; design: UDP-D-glucose / ADP-D-glucose: unit not given here; settings: for Acetyllysine / N-acetyl-L-ornithine / N-carbamoyl-L-aspartate / NADPH / dAMP / dCMP / dTDP / dTMP / dTTP / dihydroorotate / orotate / DLH / DLS/SDL/SID / PD / PEE / PVNF / 3-phosphoglycerate / ADP-D-glucose / ATP / CDP / D-sedoheptulose-1/7-phosphate / FAD / GMP / NAD+ / NADP+ / Octoluse Bisphosphate / Pyroglutamic acid / UDP-D-glucose / UDP-D-glucuronate / UDP-N-acetyl-glucosamine / UDP / UMP / UTP / a-ketoglutarate / citrate/isocitrate / cytidine / dATP / dGMP/AMP / fumarate / glucose-1/6-phosphate / glycerate / guanine / guanosine / hypoxanthine / indole / inosine / nicotinate / ornithine / phosphoenolpyruvate / pyruvate / ribose-phosphate / sarcosine/alanine / sn-glycerol-3-phosphate / succinate/methylmalonic acid / uridine / xanthosine: S2 Table Metabolomics; for Acetyllysine: metabolite Acetyllysine; for N-acetyl-L-ornithine: metabolite N-acetyl-L-ornithine; for N-carbamoyl-L-aspartate: metabolite N-carbamoyl-L-aspartate; for NADPH: metabolite NADPH; for dAMP: metabolite dAMP; for dCMP: metabolite dCMP; for dTDP: metabolite dTDP; for dTMP: metabolite dTMP; for dTTP: metabolite dTTP; for dihydroorotate: metabolite dihydroorotate; for orotate: metabolite orotate; for DLH: peptide DLH; for DLS/SDL/SID: peptide DLS/SDL/SID; for PD: peptide PD; for PEE: peptide PEE; for PVNF: peptide PVNF; for 3-phosphoglycerate: metabolite 3-phosphoglycerate; for ADP-D-glucose: metabolite ADP-D-glucose; for ATP: metabolite ATP; for CDP: metabolite CDP; for CDP / D-sedoheptulose-1/7-phosphate / GMP / Octoluse Bisphosphate / UDP / UMP / UTP / citrate/isocitrate / dGMP/AMP / fumarate / glucose-1/6-phosphate / glycerate / guanine / guanosine / inosine / pyruvate / sarcosine/alanine / succinate/methylmalonic acid / uridine / xanthosine: change in metabolite level after compound treatment; for D-sedoheptulose-1/7-phosphate: metabolite D-sedoheptulose-1/7-phosphate; for FAD: metabolite FAD; for GMP: metabolite GMP; for NAD+: metabolite NAD+; for NADP+: metabolite NADP+; for Octoluse Bisphosphate: metabolite Octoluse Bisphosphate; for Pyroglutamic acid: metabolite Pyroglutamic acid; for UDP-D-glucose: metabolite UDP-D-glucose; for UDP-D-glucuronate: metabolite UDP-D-glucuronate; for UDP-N-acetyl-glucosamine: metabolite UDP-N-acetyl-glucosamine; for UDP: metabolite UDP; for UMP: metabolite UMP; for UTP: metabolite UTP; for a-ketoglutarate: metabolite a-ketoglutarate; for citrate/isocitrate: metabolite citrate/isocitrate; for cytidine: metabolite cytidine; for dATP: metabolite dATP; for dGMP/AMP: metabolite dGMP/AMP; for fumarate: metabolite fumarate; for glucose-1/6-phosphate: metabolite glucose-1/6-phosphate; for glycerate: metabolite glycerate; for guanine: metabolite guanine; for guanosine: metabolite guanosine; for hypoxanthine: metabolite hypoxanthine; for indole: metabolite indole; for inosine: metabolite inosine; for 2_3-Diphosphoglyceric acid / 4-phosphopantothenate / 6-phospho-D-gluconate / FMN / IMP / Pyrophosphate / Sedoheptoluse bisphosphate / cyclic-AMP / glutathione disulfide / lactate / myo-inositol: metabolite level change after treatment; for nicotinate: metabolite nicotinate; for ornithine: metabolite ornithine; for phosphoenolpyruvate: metabolite phosphoenolpyruvate; for pyruvate: metabolite pyruvate; for ribose-phosphate: metabolite ribose-phosphate; for sarcosine/alanine: metabolite sarcosine/alanine; for sn-glycerol-3-phosphate: metabolite sn-glycerol-3-phosphate; for succinate/methylmalonic acid: metabolite succinate/methylmalonic acid; for uridine: metabolite uridine; for xanthosine: metabolite xanthosine
[4] = 3D7, read-out: P. falciparum 3D7 IC50 1% O2, 1% O2 hypoxia
[5] = 3D7, read-out: P. falciparum 3D7 IC50 5% O2

CCCc1c(CC)c(=N)c2ccccc2n1C [MMV008416] was tested, and the “fold change (IC50normal/ IC50hypoxia)” value [1] was 6.1, the IC50 [1, 4] was 65 nM and the IC50 [1, 5] was 397 nM. It also gave an EC50 [2] of 242 nM, an Acetyllysine [3] of 0.2915 and a N-acetyl-L-ornithine [3] of 0.3364. The N-carbamoyl-L-aspartate [3] was 0.3652, the NADPH [3] was 0.8856 and the dAMP [3] was 0.5762. It also gave a dCMP [3] of 3.613, a dTDP [3] of 0.4591 and a dTMP [3] of 0.9083. The dTTP [3] was 0.4804, the dihydroorotate [3] was 0.2294 and the orotate [3] was -0.1417. For the same compound, the DLH [3] was -1.006, the DLS/SDL/SID [3] was 0.3509 and the PD [3] was 0.4359. The PEE [3] was -0.9814, the PVNF [3] was 0.2215 and the 3-phosphoglycerate [3] was -0.02776. The ADP-D-glucose [3] was 0.4196, the ATP [3] was 0.6896 and the CDP [3] was 0.2951. The D-sedoheptulose-1/7-phosphate [3] was -0.3684, the FAD [3] was 0.5238 and the GMP [3] was 0.02334. For the same compound, the “NAD+” value [3] was 0.4432, the “NADP+” value [3] was 0.7628 and the “Octoluse Bisphosphate” value [3] was 0.3902. For the same compound, the Pyroglutamic acid [3] was -0.3783, the UDP-D-glucose [3] was 0.135 and the UDP-D-glucuronate [3] was -0.2053. It also gave a UDP-N-acetyl-glucosamine [3] of 0.4341, a UDP [3] of 0.7261 and a UMP [3] of -0.1733. The UTP [3] was 0.4819, the a-ketoglutarate [3] was 0.04368 and the citrate/isocitrate [3] was -1.579. For the same compound, the cytidine [3] was 0.4905, the dATP [3] was 0.253 and the dGMP/AMP [3] was 0.3177. For the same compound, the fumarate [3] was -0.39, the glucose-1/6-phosphate [3] was 2.308 and the glycerate [3] was 0.1238. The guanine [3] was 0.3854, the guanosine [3] was -0.8003 and the hypoxanthine [3] was 0.09764. It also gave an indole [3] of 0.1467, an inosine [3] of -0.1012 and a 2_3-Diphosphoglyceric acid [3] of 0.2083. The 4-phosphopantothenate [3] was 0.7504, the 6-phospho-D-gluconate [3] was 0.5606 and the FMN [3] was 0.7862. The IMP [3] was 0.4308, the Pyrophosphate [3] was -0.6119 and the Sedoheptoluse bisphosphate [3] was 0.3141. For the same compound, the cyclic-AMP [3] was 0.6453, the glutathione disulfide [3] was 0.5116 and the lactate [3] was 1.188. It also gave a myo-inositol [3] of 2.818, a nicotinate [3] of -0.5574 and an ornithine [3] of -0.1174. The phosphoenolpyruvate [3] was -0.4016, the pyruvate [3] was 0.4708 and the ribose-phosphate [3] was 0.2759. The sarcosine/alanine [3] was 0.4883, the sn-glycerol-3-phosphate [3] was 0.06223 and the succinate/methylmalonic acid [3] was -0.5916. For the same compound, the uridine [3] was 0.398 and the xanthosine [3] was -0.8913.
CCC(c1ccccc1)c1nn2c(-c3cccs3)nnc2s1 (stereo not drawn) [MMV665876] was tested, and the “fold change (IC50normal/ IC50hypoxia)” value [1] was 6.3, the IC50 [1, 4] was 66 nM and the IC50 [1, 5] was 415 nM. The EC50 [2] was 259 nM, the Acetyllysine [3] was 0.283 and the N-acetyl-L-ornithine [3] was 0.02574. The N-carbamoyl-L-aspartate [3] was 2.073, the NADPH [3] was -0.7617 and the dAMP [3] was 0.5954. The dCMP [3] was -0.9145, the dTDP [3] was -1.527 and the dTMP [3] was -1.62. The dTTP [3] was -1.561, the dihydroorotate [3] was 2.966 and the orotate [3] was -1.924. It also gave a DLH [3] of -0.4979, a DLS/SDL/SID [3] of -0.4746 and a PD [3] of 0.3937. It also gave a PEE [3] of -0.2764, a PVNF [3] of -2.041 and a 3-phosphoglycerate [3] of -0.3031. The ADP-D-glucose [3] was -0.09411, the ATP [3] was -0.3796 and the CDP [3] was -0.8385. The D-sedoheptulose-1/7-phosphate [3] was 0.09562, the FAD [3] was 0.1414 and the GMP [3] was -0.3833. The “NAD+” value [3] was -0.3556, the “NADP+” value [3] was -0.2262 and the “Octoluse Bisphosphate” value [3] was -0.1952. The Pyroglutamic acid [3] was -0.02059, the UDP-D-glucose [3] was -0.01878 and the UDP-D-glucuronate [3] was -0.4807. The UDP-N-acetyl-glucosamine [3] was -0.2752, the UDP [3] was -1.799 and the UMP [3] was -3.164. The UTP [3] was -2.138, the a-ketoglutarate [3] was -0.08894 and the citrate/isocitrate [3] was -0.02094. It also gave a cytidine [3] of 0.3021, a dATP [3] of 0.315 and a dGMP/AMP [3] of 0.04047. The fumarate [3] was 0.2534, the glucose-1/6-phosphate [3] was -0.2061 and the glycerate [3] was 0.1397. The guanine [3] was 0.4421, the guanosine [3] was 0.6466 and the hypoxanthine [3] was -0.006623. The indole [3] was 0.04311, the inosine [3] was 0.2618 and the 2_3-Diphosphoglyceric acid [3] was -0.3467. The 4-phosphopantothenate [3] was -0.1285, the 6-phospho-D-gluconate [3] was 0.112 and the FMN [3] was -0.3509. For the same compound, the IMP [3] was 0.3458, the Pyrophosphate [3] was -0.3973 and the Sedoheptoluse bisphosphate [3] was 0.1676. For the same compound, the cyclic-AMP [3] was -0.04329, the glutathione disulfide [3] was 0.137 and the lactate [3] was -0.1203. The myo-inositol [3] was 0.267, the nicotinate [3] was 0.1101 and the ornithine [3] was 0.02403. The phosphoenolpyruvate [3] was -0.2926, the pyruvate [3] was 0.1322 and the ribose-phosphate [3] was -0.01159. It also gave a sarcosine/alanine [3] of 0.3044, a sn-glycerol-3-phosphate [3] of -0.401 and a succinate/methylmalonic acid [3] of 0.1519. The uridine [3] was -0.6108 and the xanthosine [3] was 0.3254.
With CN(C)CCCNc1c2ccccc2nc2ccccc12 [MMV000448] the “fold change (IC50normal/ IC50hypoxia)” value [1] was 6.1, the “fold change (IC50reduced/IC50normal)” value [1] was 3.1 and the IC50 [1, 4] was 59 nM. For the same compound, the IC50 [1, 5] was 360 nM, the IC50 ([1]; 3D7, read-out: P. falciparum 3D7 IC50 HCO3- (2g/L), standard media) was 190 nM and the IC50 ([1]; 3D7, HCO3- reduced media, read-out: P. falciparum 3D7 IC50 HCO3- reduced) was 594 nM. It also gave an EC50 [2] of 235 nM, an Acetyllysine [3] of -0.6096 and a N-acetyl-L-ornithine [3] of -0.1966. The N-carbamoyl-L-aspartate [3] was -0.218, the NADPH [3] was 1.387 and the dAMP [3] was -0.07728. For the same compound, the dCMP [3] was 0.0599, the dTDP [3] was -0.2724 and the dTMP [3] was -0.1401. For the same compound, the dTTP [3] was 0.115, the dihydroorotate [3] was -0.03007 and the orotate [3] was -0.5122. The DLH [3] was -0.2186, the DLS/SDL/SID [3] was 0.06919 and the PD [3] was 0.358. The PEE [3] was 0.9721, the PVNF [3] was 0.2725 and the 3-phosphoglycerate [3] was -0.1099. The ADP-D-glucose [3] was 0.3085, the ATP [3] was -0.1913 and the CDP [3] was 0.02837. The D-sedoheptulose-1/7-phosphate [3] was -0.03224, the FAD [3] was -0.02095 and the GMP [3] was -0.2572. For the same compound, the “NAD+” value [3] was -0.1627, the “NADP+” value [3] was 0.3266 and the “Octoluse Bisphosphate” value [3] was -0.105. For the same compound, the Pyroglutamic acid [3] was -0.3472, the UDP-D-glucose [3] was -0.06298 and the UDP-D-glucuronate [3] was -0.1533. For the same compound, the UDP-N-acetyl-glucosamine [3] was -0.07606, the UDP [3] was 0.1622 and the UMP [3] was -0.1529. For the same compound, the UTP [3] was 0.06952, the a-ketoglutarate [3] was -0.5075 and the citrate/isocitrate [3] was -0.2451. The cytidine [3] was -0.2174, the dATP [3] was 0.09204 and the dGMP/AMP [3] was -0.1732. For the same compound, the fumarate [3] was 0.04552, the glucose-1/6-phosphate [3] was -0.4595 and the glycerate [3] was -0.9564. It also gave a guanine [3] of 0.005054, a guanosine [3] of -0.4079 and a hypoxanthine [3] of -0.5072. For the same compound, the indole [3] was -0.3067, the inosine [3] was -0.6058 and the 2_3-Diphosphoglyceric acid [3] was 0.03945. For the same compound, the 4-phosphopantothenate [3] was -0.1337, the 6-phospho-D-gluconate [3] was 0.01561 and the FMN [3] was -0.3847. The IMP [3] was -0.1057, the Pyrophosphate [3] was 0.1028 and the Sedoheptoluse bisphosphate [3] was -0.05677. The cyclic-AMP [3] was -0.3139, the glutathione disulfide [3] was -0.02692 and the lactate [3] was -0.5186. The myo-inositol [3] was -0.8275, the nicotinate [3] was -0.004192 and the ornithine [3] was -0.09669. The phosphoenolpyruvate [3] was -0.129, the pyruvate [3] was -0.7877 and the ribose-phosphate [3] was -0.2371. The sarcosine/alanine [3] was 0.03174, the sn-glycerol-3-phosphate [3] was -0.01243 and the succinate/methylmalonic acid [3] was -0.2869. It also gave a uridine [3] of -0.8523 and a xanthosine [3] of -0.9083.
